Measured values reported in patent US20250262226A1, “COMBINATIONS OF VITAMIN D3, NIACINAMIDE AND LIPOIC ACID FOR USE IN THE MAINTENANCE OF HEALTHY BLOOD GLUCOSE LEVELS” (priority 2022, published 2025).

Test system: L6 muscle cells
Experiment: Insulin-stimulated glucose uptake (2-NBDG) in L6 muscle cells
Format: cell-based
Details: for increase in glucose uptake after insulin pulse over control cells: 100 nM insulin, FIG. 4; for glucose uptake relative to control cells: insulin stimulated, FIG. 5, V 500 IU, N 15 mg/ml, LA 0.5 mM
Experimental: The effect of each of vitamin D3, niacinamide and lipoic acid separately, and the fixed dose combination of vitamin D3, niacinamide and lipoic acid composition provided herein, were evaluated for the ability of each to have an effect on glucose uptake in an in vitro model. A goal was to improve insulin's ability to increase the uptake of glucose by L6 muscle cells.
Vitamin D3 was utilized to increase GLUT4 levels since this vitamin has been shown before to increase GLUT4 levels in muscle, and niacinamide was used to increase cellular NAD levels (El-Fakhri et al., Horm Res Paediact 81:363-378 (2014); Manna et al., J Biol Chem 287 (50): 42324-42332 (2012); Garten, Endocrinologist, Issue 135 (2020); and Fan et al., J Diabetes Investig. 11 (6): 1403-1419 (2020)). Glucose uptake studies using L6 cells were performed. L6 cells (ATCC CLR-1458; Rockville, MD) were maintained in Dulbecco's modified Eagle's medium (DMEM) supplemented with 10% Fetal Bovine Serum (FBS) and 100 μg/mL penicillin and streptomycin, at 37° C. in an atmosphere of 5% CO2. 2-(N-[7-nitrobenz-2-oxa-1, 3-diazol-4-yl]amino)-2-deoxyglucose (2-NBDG) (Molecular Probes-Invitrogen, CA, USA) was used to assess glucose uptake in the L6 cells. The cells were kept in glucose free medium for half an hour before insulin stimulation. The cells were then stimulated with 100 nM insulin for 10 and 20 min and incubated with 10 μM of 2-NBDG for 15 min. The reaction was stopped by washing with cold PBS three times and the cells were lysed using 0.1% Triton X. The lysate was then used to read florescence at […]. The data is reported in FIG. 4 as percent of control cells (no treatment, incubation with media).
Experiment conducted n=5. Student's t-tests were performed to compare between the present glucose uptake shown by control, vitamin D, niacinamide, and their combination at different time points.
Because the TCA cycle and glucose metabolism in the mitochondria generate oxidative stress, lipoic acid, an antioxidant (Golbidi et al., Front Pharmacol, Vol. 2, Article 69 (2011), 15 pages) which is known to enter the mitochondria, was tested to determine if it could further enhance glucose uptake. The following combinations were tested for improvements in muscle cell glucose uptake stimulated by insulin: Vitamin D3 plus Niacinamide plus or minus Lipoic acid alone.

| Molecule | increase in glucose uptake after insulin pulse over control cells (10 minutes) | increase in glucose uptake after insulin pulse over control cells (20 minutes) | glucose uptake relative to control cells |
| --- | --- | --- | --- |
| C=C1CC[C@H](O)C/C1=C/C=C1\CCC[C@]2(C)[C@@H]([C@H](C)CCCC(C)C)CC[C@@H]12 [vitamin D3, cholecalciferol] | about 6 fold | less so | – |
| Vitamin E | – | – | had no effect |
| NC(=O)c1cccnc1 [niacinamide] | about 3 fold | only little | – |
| O=C(O)CCCCC1CCSS1 (racemic) [Lipoic acid, DL-alpha-lipoic acid] | – | – | did not increase glucose uptake |
